Measured values from patent US7056679B2, “Target specific screening and its use for identifying target binders” (Antyra, Inc., priority 2001, dated 2006).

Legend:
E-tag antibody = experiment: ELISA analysis of phage on antibody raised against ETAG (positive control); details: peptide binding to E-tag antibody; phage ELISA units read at 405 nm
Outline: (§1)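 Phage from picked clones (M13KO7 helper) bound 2 hr at room temperature to wells coated overnight at 4 °C with 500 ng/well anti-ETAG antibody or LDH, milk-blocked. Detection with HRP-anti-M13 (1:3000) and ABTS at 405 nm; positive when A405 ≥2-fold over background.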

[1] = test system: lactate dehydrogenase (LDH); experiment: ELISA analysis of phage on LDH (irrelevant, non-specific target); assay type: binding; details: peptide binding to LDH polypeptide (non-specific binding); phage ELISA units read at 405 nm
Outline: as §1

DGI-2 = biological target: T1, DGI-2 (Homo sapiens, UniProt Q15004); experiment: ELISA analysis of phage on DGI-2 polypeptide (specific binding); details: for DGI-2 (OD): binding to DGI-2 polypeptide (specific binding), phage ELISA units read at 405 nm; for DGI-2/LDH (OD): ratio of specific binding to non-specific binding
T1 construct: encompassed the entire DGI-2 open reading frame (ORF); His-tag of vector pIVEX2.3-MCS (inferred from the vector and from the reverse primer lacking a stop codon); made in house; host or cells: cell-free in vitro translation (Rapid Translation System RTS, Roche; E. coli lysate)
T1 sequence (Q15004 1-111): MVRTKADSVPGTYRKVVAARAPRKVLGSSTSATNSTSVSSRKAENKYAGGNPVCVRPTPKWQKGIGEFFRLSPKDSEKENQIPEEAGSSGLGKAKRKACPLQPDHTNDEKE
Outline: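 Recombinant DGI-2 from in vitro translation, LDH (non-specific) and controls were coated at 500 ng/well and blocked with 2% milk-PBS. Phage from individual clones bound for 2 hr at room temperature, then anti-M13-HRP with ABTS was read at 405 nm; a clone counted as positive at ≥2-fold over background.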

Substance	ETAG (OD) (E-tag antibody)	LDH (OD) [1] [OD]	DGI-2 (OD) (DGI-2)	DGI-2/LDH (OD) (DGI-2)
RRTQPAYRSGADDRTSGFYCYVTSALSAGAWMPFLPRRLA (DGI-2-40F-3-A12; listed as Escherichia coli)	4.6	0.8	0.9	1.1
GLYQRGLAPRCRGERFGVRN (DGI-2-20F-PP-C2; listed as Escherichia coli)	6.0	1.1	2.7	2.5
EGNWFCAVFRGFCVGDRGPE (DGI-2-20R-3-A1; listed as Escherichia coli)	11.1	1.1	7.1	6.3
GLEPVPFQTDKRIAMGWTREWLVNGYGAAHRRDARMQSGH (DGI-2-40F-3-D6; listed as Escherichia coli)	11.4	1.0	2.5	2.6
GIMQVAWGWREMTRLWDLGMA (GIMQVAWGWREWRLWDLGMA; DGI-2-20R-3-C6; listed as Escherichia coli)	20.3	1.1	6.0	5.2
LFRFSGTGMASLPCVGWHLV (DGI-2-20F-PP-B6; listed as Escherichia coli)	37.0	1.0	2.5	2.6
PAMGHCMQVLGPVLEGRSRDQVGR (DGI-2-20R-4-G6; listed as Escherichia coli)	11.5	1.1	1.6	1.4
LWRRWSEGQLLGDGELRGDG (DGI-2-20R-3-B52; listed as Escherichia coli)	15.8	1.0	8.7	8.4
RQRSGGRWVVDRVTRVASTSP (DGI-2-20F-PP-B12; listed as Escherichia coli)	1.9	1.1	2.3	2.2
SLSLYWDAQVGCEVFWGYCV (DGI-2-20R-3-C10; listed as Escherichia coli)	14.7	1.0	2.2	2.1
LGNASSLWFLRSVQESGVR (LGNASSLIPFLRSVQESGVR; DGI-2-20F-3-C5; listed as Escherichia coli)	17.7	0.9	1.0	1.0
GQISLAGVAVCSSERMLLAFSSRVFLPGLKVPVTTSQRGS (DGI-2-40F-3-A8; listed as Escherichia coli)	1.5	0.8	0.8	1.1
DDIVCLFQFCTMFCWLDMGW (DDIVCLFQFCIMFCWLDMGW; DGI-2-20F-PP-H3; listed as Escherichia coli)	3.7	1.8	2.3	1.3
SRELGKWGRLWQDWSSGNFS (DGI-2-20R-3-C11; listed as Escherichia coli)	18.9	1.0	8.6	8.3
VVRQGCMAFSGLCSGVTESE (DGI-2-20R-3-C8; listed as Escherichia coli)	21.1	1.1	5.6	5.3
MQAASTLSTYMGAIRMGYPILHWDRGGVQRVDPGLYRGRV (DGI-2-40F-3-B10; listed as Escherichia coli)	4.8	1.0	1.3	1.4
WAASCFWGHVALGCGRNGQG (DGI-2-20R-3-A11; listed as Escherichia coli)	14.7	1.1	6.2	5.7
SYRNFAMQSSLQVRRGSVVEDGTCWWEGVRCYSG (DGI-2-40F-4-F6; listed as Escherichia coli)	13.5	1.0	3.2	3.2
SIILAGCVWVMPCGQNLGGV (DGI-2-20F-PP-C4; listed as Escherichia coli)	36.1	0.9	3.0	3.2
LLLPVRWRDAQPRSLLMEWI (DGI-2-20F-PP-F8; listed as Escherichia coli)	7.6	1.1	2.0	1.9

Substance	ETAG (OD) (E-tag antibody)	LDH (OD) [1] [OD]	DGI-2 (OD) (DGI-2)	DGI-2/LDH (OD) (DGI-2)
EVFVSVWVFRFRVMPVTPGGT (DGI-2-20F-PP-E6; listed as Escherichia coli)	4.1	1.2	3.0	2.6
VTGTRFRGFAVACVRMGTWH (DGI-2-20F-PP-F2; listed as Escherichia coli)	1.9	1.0	2.4	2.5
LSLLSVVVRSMGASAPQRQV (DGI-2-20F-3-A7; listed as Escherichia coli)	7.0	0.9	2.1	2.4
LFSATGCALMSGFCLGSDGS (DGI-2-20R-3-C1; listed as Escherichia coli)	14.0	1.0	8.2	8.3
YDQVWNSLLAAVLGGQELVN (DGI-2-20F-3-D112; listed as Escherichia coli)	19.9	1.0	1.4	1.4
CCAWNGVGVGGLGWRVVVGP (DGI-2-20F-PP-H4; listed as Escherichia coli)	32.9	1.0	2.1	2.2
FRMWVQSCFWGQPGTGCGEG (DGI-2-20R-3-D2; listed as Escherichia coli)	14.3	1.1	7.9	7.5
MGADTCMGGKMPFDQMFGAV (DGI-2-20F-PP-E10; listed as Escherichia coli)	44.6	1.2	2.0	1.7
ALRSLGSGGFGWQAGRASPQGMTHFPYFGWSGMPTARVRP (DGI-2-40F-3-D7; listed as Escherichia coli)	10.3	1.0	2.6	2.6
LGPAHPHGRVCRVSSS#S (LGPAHPHGRVCRVSSSS; DGI-2-20F-PP-B9; listed as Escherichia coli)	5.0	0.7	1.9	2.7
VSGVPDGSMRAAQLASGYWC (DGI-2-20F-PP-G2; listed as Escherichia coli)	5.6	1.1	2.4	2.1
GRAGTSMTELVAWGFVQRVG (DGI-2-20F-PP-H10; listed as Escherichia coli)	13.0	0.7	1.4	1.9
RDTTSQWSWISRGWEFPGWR (DGI-2-20R-3-C2; listed as Escherichia coli)	11.9	1.1	6.2	5.8
RERWGTAWNLWTEGVVDVRP (DGI-2-20F-3-B5; listed as Escherichia coli)	16.4	0.9	6.1	6.6
LSLEGGWMWDTKGGDGGSAQ (DGI-2-20R-4-F93; listed as Escherichia coli)	19.5	1.1	9.0	8.4
CGGWGAMWEAWVQGLNGAGC (DGI-2-20R-3-D4; listed as Escherichia coli)	18.9	1.1	8.7	8.1
SSVWATWGSDLRTFGSVGFL (DGI-2-20F-PP-C7; listed as Escherichia coli)	11.0	1.1	3.0	2.6
LAPMFLQNQVRTWAASRRPLPAGPSNARCETGSLSPWVPC (DGI-2-40F-3-B11; listed as Escherichia coli)	7.9	0.9	1.8	2.0
ERVSKCVGRGSGRSVGQFGG (DGI-2-20F-PP-F1; listed as Escherichia coli)	11.1	0.9	3.0	3.4
